Test results published in ChEMBL document CHEMBL1123032, “Antiparasitic agents. 6. Synthesis and anthelmintic activities of novel isothiocyanatophenyl-1,2,4-oxadiazoles” (1985).

What was measured:
Assay type in all cases: functional
[1] = Anthelmintic activity against Nematospiroides dubius when the dose was administered orally in mouse.; set-up: concentration or dose not given beside the values
[2] = system: Rodentolepis nana; assay: Evaluation for antihelminthic activity against Hymenolepis nana when the dose was administered orally in mouse.
[3] = organism: Mus musculus; assay: Compound was evaluated for antihelminthic activity in the diet against Nematospiroides dubius in mice at a concentration 0.1%
[4] = organism: Mus musculus; assay: Compound was evaluated for antihelminthic activity in the diet against Nematospiroides dubius in mice at a concentration 0.013%
[5] = organism: Mus musculus; assay: Compound was evaluated for antihelminthic activity in the diet against Nematospiroides dubius in mice at a concentration 0.025%
[6] = organism: Mus musculus; assay: Compound was evaluated for antihelminthic activity in the diet against Nematospiroides dubius in mice at a concentration 0.05%
[7] = organism: Mus musculus; assay: Compound was evaluated for antihelminthic activity in the diet against Nematospiroides dubius in mice at concentration 0.2%
[8] = system: Mus musculus; assay: Compound was evaluated for antihelminthic activity against Hymenolepis nana when the dose was administered subcutaneously in mouse
[9] = system: Mus musculus; assay: Compound was evaluated for antihelminthic activity against Hymenolepis nana when the dose was administered orally in mouse after destrobilization

| SMILES | Activity [1] [%] | Activity [2] [%] | also measured |
| --- | --- | --- | --- |
| [O-][n+]1ccc(-c2ncon2)cc1 | 0 | 0 | – |
| Nc1ccc(-c2ncon2)cc1 | 0 | 0 | – |
| S=C=Nc1ccc(-c2noc(C3CCCCC3)n2)cc1 | 0 | 25 | – |
| Fc1ccc(-c2noc(-c3ccc(N=C=S)cc3)n2)cc1 | 0 | 0 | – |
| COCCc1nc(-c2ccc(N=C=S)cc2)no1 | 0 | 0 | – |
| S=C=Nc1cc(-c2nc(-c3ccco3)no2)ccc1Cl | 0 | 100 | – |
| COC(=O)Nc1cc(-c2nc(-c3ccco3)no2)ccc1Cl | 0 | 0 | – |
| O=[N+]([O-])CCc1nc(-c2ccccc2)no1 | 0 | 0 | – |
| Nc1ccc(-c2nc(-c3ccco3)no2)c(Cl)c1 | 0 | 0 | – |
| CCCCCCCCCCCc1nc(N)no1 | – | – | Activity [3]: 70%; Activity [4]: 8%; Activity [5]: 35%; Activity [6]: 46%; Activity [7]: 93% |
| Nc1ccc(-c2nc(-c3ccc(Cl)cc3)no2)cc1 | 0 | 0 | – |
| c1ccc(-c2nc(CCn3cnc4ccccc43)no2)cc1 | 0 | 0 | – |
| S=C=Nc1ccc(-c2noc(-c3ccccn3)n2)cc1 | 0 | 0 | – |
| S=C=Nc1ccc(-c2noc(C34CC5CC(CC(C5)C3)C4)n2)cc1 | 0 | 0 | – |
| c1ccc(-c2nc(CCn3c(-c4cscn4)nc4ccccc43)no2)cc1 | 17 | 0 | – |
| S=C=Nc1ccc(-c2noc(C3CC3)n2)cc1 | 0 | 0 | – |
| S=C=Nc1ccc(-c2nc(-c3cccs3)no2)cc1 | 22 | 33 | – |
| O=[N+]([O-])c1ccc2ncn(CCc3noc(-c4ccccc4)n3)c2c1 | 0 | 0 | – |
| O=C(Nc1ccc(-c2ncon2)cc1)Oc1ccccc1 | 0 | 0 | – |
| COc1cc(-c2nc(-c3ccc(N=C=S)cc3)no2)cc(OC)c1OC | 0 | 0 | – |

| SMILES | Activity [1] [%] | Activity [2] [%] | also measured |
| --- | --- | --- | --- |
| S=C=Nc1ccc(-c2noc(CCl)n2)cc1 | 38 | 0 | – |
| S=C=Nc1ccc(-c2nc(-c3ccccn3)no2)cc1 | 0 | 0 | – |
| Nc1cc(-c2nc(-c3ccco3)no2)ccc1Cl | 0 | 0 | – |
| C(=N/c1ccc(-c2ncon2)cc1)/c1ccc[nH]1 | 0 | 0 | – |
| S=C=Nc1ccc(-c2noc(-c3cccs3)n2)cc1 | 57 | 25 | – |
| Nc1ccc(-c2nc(-c3ccc(F)cc3)no2)cc1 | 18 | 0 | – |
| Clc1ccc(/C=N/c2ccc(-c3ncon3)cc2)cc1 | 0 | 0 | – |
| S=C=Nc1cccc(-c2ncon2)c1 | 0 | 0 | – |
| S=C=Nc1cc(-c2ncon2)ccc1Cl | 0 | 0 | – |
| O=C(Nc1cc(-c2nc(-c3ccco3)no2)ccc1Cl)Oc1ccccc1 | 0 | 0 | – |
| CCc1nc(-c2ccc(N=C=S)cc2)no1 | 30 | 0 | – |
| CCOC(=O)Cc1nc(-c2ccc(N=C=S)cc2)no1 | 0 | 0 | – |
| CC(=O)Oc1ccccc1-c1nc(-c2ccc(N=C=S)cc2)no1 | 0 | 0 | – |
| Fc1ccc(-c2nc(-c3ccc(N=C=S)cc3)no2)cc1 | 42 | 0 | – |
| O=C(Nc1ccc(-c2nc(-c3ccco3)no2)c(Cl)c1)OCC(Cl)(Cl)Cl | 0 | 0 | – |
| Clc1ccc(-c2ncon2)cc1 | – | – | Activity [3]: 100%; Activity [4]: 36%; Activity [5]: 61%; Activity [6]: 95% |
| S=C=Nc1ccc(-c2ncon2)cc1 | 100 | – | Activity [8]: 100%; Activity [3]: 100%; Activity [4]: 48%; Activity [5]: 82%; Activity [6]: 96%; Activity [9]: 0%; Activity [7]: 100% |
| CCN(CC)/C(S)=N\c1cc(-c2nc(-c3ccco3)no2)ccc1Cl | 0 | 0 | – |
| CCN(CC)/C(S)=N\c1ccc(-c2nc(-c3ccco3)no2)c(Cl)c1 | 0 | 0 | – |
| S=C=Nc1cccc(-c2noc(-c3ccco3)n2)c1 | 0 | 50 | – |

| SMILES | Activity [1] [%] | Activity [2] [%] | also measured |
| --- | --- | --- | --- |
| S=C=Nc1ccc(-c2noc(-c3ccc(Cl)cc3)n2)cc1 | 0 | 0 | – |
| CN1CCN(Cc2nc(-c3ccc(N=C=S)cc3)no2)CC1 | 0 | 0 | – |
| S=C=Nc1ccc(-c2nc(-c3ccco3)no2)c(Cl)c1 | 0 | 100 | – |
| S=C=Nc1ccc(-c2nc(-c3ccco3)no2)cc1 | 90 | 100 | – |
| S=C=Nc1cc(-c2nc(-c3ccco3)no2)ccc1Sc1ccccc1 | 0 | 0 | – |
| C(=C\c1cccs1)/c1noc(/C=C/c2cccs2)n1 | 0 | 0 | – |
| O=C(Nc1cc(-c2nc(-c3ccco3)no2)ccc1Cl)OCC(Cl)(Cl)Cl | 0 | 0 | – |
| S=C=Nc1ccc(-c2noc(CCc3ccccc3)n2)cc1 | 0 | 0 | – |
| CCOC(=O)c1nc(-c2ccc(N=C=S)cc2)no1 | 0 | 0 | – |
| O=C(Nc1ccc(-c2nc(-c3ccco3)no2)c(Cl)c1)Oc1ccccc1 | 0 | 0 | – |
| O=[N+]([O-])c1ccc(/C=N\c2ccc(-c3ncon3)cc2)o1 | 0 | 0 | – |
| CSc1nc(-c2ccccc2)no1 | – | – | Activity [3]: 94%; Activity [4]: 39%; Activity [5]: 67%; Activity [6]: 96%; Activity [7]: 98% |
| S=C=Nc1ccc(-c2nc(-c3ccc(Cl)cc3)no2)cc1 | 0 | 0 | – |
| c1cc(-c2ncon2)ccn1 | 0 | 0 | – |
| COC(=O)Nc1ccc(-c2nc(-c3ccco3)no2)c(Cl)c1 | 0 | 0 | – |
| O=[N+]([O-])c1cc(/C=N/c2ccc(-c3ncon3)cc2)ccc1Cl | 0 | 0 | – |
| S=C=Nc1ccc(-c2noc(-c3ccco3)n2)cc1 | 72 | 0 | – |
| c1ccc2[nH]c(-c3cscn3)nc2c1 [THIABENDAZOLE] | – | – | Activity [3]: 100%; Activity [4]: 47%; Activity [5]: 81%; Activity [6]: 94%; Activity [7]: 100% |
